Reference: US6355799B1, “Substituted benzene compounds, process for their preparation, and herbicidal and defoliant compositions containing them” (ISK Americas Incorporated, priority 1997, dated 2002)

Experiments:
Assay type in all cases: in vivo
[1] = tested on: ivyleaf morningglory (Ipomoea hederacea, IPOHE); test: Pre-emerge test, greenhouse herbicide activity screening
Summary of the method: (§1)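 Visual ratings on a 0-100 scale (0 no damage, 100 all plants dead) were taken at 14 days after treatment. Rates of 15-1000 g ai/ha in acetone, 187 l/ha, were sprayed onto soil one day after planting (pre-emerge) or onto 2-3 leaf plants with 0.25% v/v surfactant (post-emerge).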

[2] = tested on: velvetleaf (Abutilon theophrasti, ABUTH); test: as above
Summary of the method: as §1

[3] = tested on: green foxtail (Setaria viridis, SETVI); test: as above
Summary of the method: as §1

[4] = tested on: sicklepod (Cassia obtusifolia, CASOB); test: as above
Summary of the method: as §1

[5] = tested on: large crabgrass (Digitaria sanguinalis, DIGSA); test: as above
Summary of the method: as §1

[6] = tested on: barnyardgrass (Echinochloa crus-galli, ECHCG); test: as above
Summary of the method: as §1

[7] = tested on: johnsongrass (Sorghum halepense, SORHA); test: as above
Summary of the method: as §1

[8] = tested on: lambsquarters (Chenopodium album, CHEAL); test: as above
Summary of the method: as §1

[9] = tested on: field corn (Zea mays L., var. Dekalb 535, CORN); test: Pre-emerge test, crop safety
Summary of the method: (§2)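 Compounds in acetone were track-sprayed at 15-1000 g ai/ha (187 l/ha) on sandy loam pots: pre-emerge one day after seeding, post-emerge at 2-3 leaf stage with 0.25% v/v non-ionic surfactant. Phytotoxicity was rated 14 days later on a 0 (no damage) to 100 (complete death) scale.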

[10] = tested on: upland rice (Oryza sp., var. Tebonnet, RICE); test: Pre-emerge test, crop safety
Summary of the method: as §2

[11] = tested on: field corn (Zea mays L., var. Dekalb 535, CORN); test: Post-emerge test, crop safety; conditions: post-emerge; for Post-emerge Herbicidal Activity CORN: crop damage rating 0-100 at 14 days after application; for phytotoxicity rating CORN (crop damage): 14 days after application, rating scale 0-100
Summary of the method: as §1

[12] = tested on: upland rice (Oryza sp., var. Tebonnet, RICE); test: Post-emerge test, crop safety; conditions: post-emerge; for Post-emerge Herbicidal Activity RICE: crop damage rating 0-100 at 14 days after application; for phytotoxicity rating RICE (crop damage): 14 days after application, rating scale 0-100
Summary of the method: as §1

[13] = tested on: ivyleaf morningglory (Ipomoea hederacea, IPOHE); test: Post-emerge test, greenhouse herbicide activity screening; conditions: post-emerge; for Post-emerge Herbicidal Activity IPOHE: phytotoxicity rating 0-100 at 14 days after application; for phytotoxicity rating IPOHE: 14 days after application, rating scale 0-100
Summary of the method: (§3)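 Herbicidal damage is scored 0 (none) to 100 (complete plant death) two weeks after a simulated field spray. Rates span 15–1000 g ai/ha, delivered in acetone at 187 l/ha. For post-emergence treatments, plants have 2–3 leaves and the spray carries 0.25% v/v non-ionic surfactant.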

[14] = tested on: velvetleaf (Abutilon theophrasti, ABUTH); test: as above; conditions: post-emerge; for Post-emerge Herbicidal Activity ABUTH: phytotoxicity rating 0-100 at 14 days after application; for phytotoxicity rating ABUTH: 14 days after application, rating scale 0-100
Summary of the method: as §3

[15] = tested on: green foxtail (Setaria viridis, SETVI); test: as above; conditions: post-emerge; for Post-emerge Herbicidal Activity SETVI: phytotoxicity rating 0-100 at 14 days after application; for phytotoxicity rating SETVI: 14 days after application, rating scale 0-100
Summary of the method: as §3

[16] = tested on: sicklepod (Cassia obtusifolia, CASOB); test: as above; conditions: post-emerge; for Post-emerge Herbicidal Activity CASOB: phytotoxicity rating 0-100 at 14 days after application; for phytotoxicity rating CASOB: 14 days after application, rating scale 0-100
Summary of the method: as §3

[17] = tested on: large crabgrass (Digitaria sanguinalis, DIGSA); test: as above; conditions: post-emerge; for Post-emerge Herbicidal Activity DIGSA: phytotoxicity rating 0-100 at 14 days after application; for phytotoxicity rating DIGSA: 14 days after application, rating scale 0-100
Summary of the method: as §3

[18] = tested on: barnyardgrass (Echinochloa crus-galli, ECHCG); test: as above; conditions: post-emerge; for Post-emerge Herbicidal Activity ECHCG: phytotoxicity rating 0-100 at 14 days after application; for phytotoxicity rating ECHCG: 14 days after application, rating scale 0-100
Summary of the method: as §3

[19] = tested on: johnsongrass (Sorghum halepense, SORHA); test: as above; conditions: post-emerge; for Post-emerge Herbicidal Activity SORHA: phytotoxicity rating 0-100 at 14 days after application; for phytotoxicity rating SORHA: 14 days after application, rating scale 0-100
Summary of the method: as §3

[20] = tested on: redroot pigweed (Amaranthus retroflexus, AMARE); test: as above; conditions: post-emerge; for Post-emerge Herbicidal Activity AMARE: phytotoxicity rating 0-100 at 14 days after application; for phytotoxicity rating AMARE: 14 days after application
Summary of the method: as §3

[21] = tested on: lambsquarters (Chenopodium album, CHEAL); test: as above; conditions: post-emerge; for Post-emerge Herbicidal Activity CHEAL: phytotoxicity rating 0-100 at 14 days after application; for phytotoxicity rating CHEAL: 14 days after application, rating scale 0-100
Summary of the method: as §3

[22] = tested on: redroot pigweed (Amaranthus retroflexus, AMARE); test: Pre-emerge test, greenhouse herbicide activity screening
Summary of the method: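 Plants grown in 10 cm pots of sandy loam mix received acetone-dissolved compounds through a moving flat-fan nozzle. Doses ranged from 15 to 1000 g ai/ha. Pre-emerge pots were seeded one day earlier, post-emerge pots 8–21 days earlier. Fourteen days on, each pot was graded 0–100 for damage.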

[23] = pre-emerge, rate 63 g ai/ha, phytotoxicity rating 0-100 at 14 days after application
[24] = pre-emerge, rate 250 g ai/ha, phytotoxicity rating 0-100 at 14 days after application
[25] = crop damage, pre-emerge, rate 63 g ai/ha, phytotoxicity rating 0-100 at 14 days after application
[26] = crop damage, pre-emerge, rate 250 g ai/ha, phytotoxicity rating 0-100 at 14 days after application
[27] = 250 g ai/ha, phytotoxicity rating 0-100, 14 days after application
[28] = 250 g ai/ha, crop damage rating 0-100, 14 days after application

Compound: O=C(Nc1cc(Cl)ccc1N1C(=O)C2=C(CCCC2)C1=O)c1ccc2ccccc2c1 [8-36]
- Pre-emerge Herbicidal Activity IPOHE [1, 23]: 10
- Pre-emerge Herbicidal Activity IPOHE [1, 24]: 20
- Pre-emerge Herbicidal Activity ABUTH [2, 23]: 80
- Pre-emerge Herbicidal Activity ABUTH [2, 24]: 30
- Pre-emerge Herbicidal Activity SETVI [3, 23]: 0
- Pre-emerge Herbicidal Activity SETVI [3, 24]: 30
- Pre-emerge Herbicidal Activity CASOB [4, 23]: 10
- Pre-emerge Herbicidal Activity CASOB [4, 24]: 30
- Pre-emerge Herbicidal Activity DIGSA [5, 23]: 0
- Pre-emerge Herbicidal Activity DIGSA [5, 24]: 40
- Pre-emerge Herbicidal Activity ECHCG [6, 23]: 0
- Pre-emerge Herbicidal Activity ECHCG [6, 24]: 0
- Pre-emerge Herbicidal Activity SORHA [7, 23]: 0
- Pre-emerge Herbicidal Activity SORHA [7, 24]: 0
- Pre-emerge Herbicidal Activity CHEAL [8, 23]: 100
- Pre-emerge Herbicidal Activity CHEAL [8, 24]: 100
- Pre-emerge Herbicidal Activity CORN [9, 25]: 0
- Pre-emerge Herbicidal Activity CORN [9, 26]: 0
- Pre-emerge Herbicidal Activity RICE [10, 25]: 20
- Pre-emerge Herbicidal Activity RICE [10, 26]: 40
- Post-emerge Herbicidal Activity CORN ([11]; 63 g ai/ha): 10
- Post-emerge Herbicidal Activity CORN ([11]; 250 g ai/ha): 15
- Post-emerge Herbicidal Activity RICE ([12]; 63 g ai/ha): 10
- Post-emerge Herbicidal Activity RICE ([12]; 250 g ai/ha): 20
- Post-emerge Herbicidal Activity IPOHE ([13]; 63 g ai/ha): 100
- Post-emerge Herbicidal Activity IPOHE ([13]; 250 g ai/ha): 85
- Post-emerge Herbicidal Activity ABUTH ([14]; 63 g ai/ha): 100
- Post-emerge Herbicidal Activity ABUTH ([14]; 250 g ai/ha): 100
- Post-emerge Herbicidal Activity SETVI ([15]; 63 g ai/ha): 10
- Post-emerge Herbicidal Activity SETVI ([15]; 250 g ai/ha): 10
- Post-emerge Herbicidal Activity CASOB ([16]; 63 g ai/ha): 70
- Post-emerge Herbicidal Activity CASOB ([16]; 250 g ai/ha): 95
- Post-emerge Herbicidal Activity DIGSA ([17]; 63 g ai/ha): 10
- Post-emerge Herbicidal Activity DIGSA ([17]; 250 g ai/ha): 5
- Post-emerge Herbicidal Activity ECHCG ([18]; 63 g ai/ha): 0
- Post-emerge Herbicidal Activity ECHCG ([18]; 250 g ai/ha): 20
- Post-emerge Herbicidal Activity SORHA ([19]; 63 g ai/ha): 0
- Post-emerge Herbicidal Activity SORHA ([19]; 250 g ai/ha): 10
- Post-emerge Herbicidal Activity AMARE ([20]; 63 g ai/ha): 95
- Post-emerge Herbicidal Activity AMARE ([20]; 250 g ai/ha): 90
- Post-emerge Herbicidal Activity CHEAL ([21]; 63 g ai/ha): 95
- Post-emerge Herbicidal Activity CHEAL ([21]; 250 g ai/ha): 100
- Pre-emerge Herbicidal Activity AMARE [22, 23]: 100
- Pre-emerge Herbicidal Activity AMARE [22, 24]: 100

Compound: Nn1c(C(F)(F)F)cc(=O)n(-c2c(F)cc(Cl)c(O)c2NC(=O)c2ccc3ccccc3c2)c1=O [Compound 2-192]
- Pre-emerge Herbicidal Activity IPOHE [1, 27]: 30
- Pre-emerge Herbicidal Activity ABUTH [2, 27]: 85
- Pre-emerge Herbicidal Activity SETVI [3, 27]: 0
- Pre-emerge Herbicidal Activity CASOB [4, 27]: 0
- Pre-emerge Herbicidal Activity DIGSA [5, 27]: 0
- Pre-emerge Herbicidal Activity ECHCG [6, 27]: 0
- Pre-emerge Herbicidal Activity SORHA [7, 27]: 0
- Pre-emerge Herbicidal Activity CHEAL [8, 27]: 80
- Pre-emerge Herbicidal Activity CORN [9, 28]: 0
- Pre-emerge Herbicidal Activity RICE [10, 28]: 0
- phytotoxicity rating CORN (crop damage) ([11]; 63 g ai/ha): 5
- phytotoxicity rating CORN (crop damage) ([11]; 250 g ai/ha): 15
- phytotoxicity rating RICE (crop damage) ([12]; 63 g ai/ha): 0
- phytotoxicity rating RICE (crop damage) ([12]; 250 g ai/ha): 20
- phytotoxicity rating IPOHE ([13]; 63 g ai/ha): 50
- phytotoxicity rating IPOHE ([13]; 250 g ai/ha): 70
- phytotoxicity rating ABUTH ([14]; 63 g ai/ha): 85
- phytotoxicity rating ABUTH ([14]; 250 g ai/ha): 85
- phytotoxicity rating SETVI ([15]; 63 g ai/ha): 0
- phytotoxicity rating SETVI ([15]; 250 g ai/ha): 0
- phytotoxicity rating CASOB ([16]; 63 g ai/ha): 40
- phytotoxicity rating CASOB ([16]; 250 g ai/ha): 60
- phytotoxicity rating DIGSA ([17]; 63 g ai/ha): 0
- phytotoxicity rating DIGSA ([17]; 250 g ai/ha): 0
- phytotoxicity rating ECHCG ([18]; 63 g ai/ha): 0
- phytotoxicity rating ECHCG ([18]; 250 g ai/ha): 0
- phytotoxicity rating SORHA ([19]; 63 g ai/ha): 0
- phytotoxicity rating SORHA ([19]; 250 g ai/ha): 0
- phytotoxicity rating AMARE ([20]; 63 g ai/ha, rating scale 0-100 (0 no damage, 100 complete death)): 70
- phytotoxicity rating AMARE ([20]; 250 g ai/ha, rating scale 0-100): 70
- phytotoxicity rating CHEAL ([21]; 63 g ai/ha): 60
- phytotoxicity rating CHEAL ([21]; 250 g ai/ha): 50
- Pre-emerge Herbicidal Activity AMARE [22, 27]: 90
